These results are taken from patent publication US20100280019A1, “ISOXAZOLES” (priority 2009, published 2010).

The experiment addresses T1, GABA A α5 (human receptors of composition α5β3γ2) (Homo sapiens, UniProt P18507+P31644).
T1 construct: expressed in transfected cells; host or cells: HEK293, transiently transfected; membranes prepared from cell pellets
The experiment can be described thus: [3H]flumazenil competition binding, HEK293 cells expressing human GABA A α5β3γ2 receptors. The settings on record: [3H]-Flumazenil 0.5 nM, means of two determinations, read-out: hKi (GABA Aα5). The protocol:
The affinity of compounds at GABA A receptor subtypes was measured by competition for [^3H]flumazenil (85 Ci/mmol; Roche) binding to HEK293 cells expressing rat (stably transfected) or human (transiently transfected) receptors of composition α1β3γ2, α2β3γ2, α3β3γ2 and α5β3γ2.
Cell pellets were suspended in Krebs-tris buffer (4.8 mM KCl, 1.2 mM CaCl2, 1.2 mM MgCl2, 120 mM NaCl, 15 mM Tris; pH 7.5; binding assay buffer), homogenized by polytron for ca. 20 sec on ice and centrifuged for 60 min at 4° C. (50000 g; Sorvall, rotor: SM24=20000 rpm). The cell pellets were resuspended in Krebs-tris buffer and homogenized by polytron for ca. 15 sec on ice. Protein was measured (Bradford method, Bio-Rad) and aliquots of 1 mL were prepared and stored at −80° C.
Radioligand binding assays were carried out in a volume of […] (96-well plates) which contained […] of cell membranes, [^3H]-Flumazenil at a concentration of 1 nM for α1, α2, α3 subunits and 0.5 nM for α5 subunits and the test compound in the range of […]. Nonspecific binding was defined by 10^−5 M diazepam and typically represented less than 5% of the total binding. Assays were incubated to equilibrium for 1 hour at 4° C. and harvested onto GF/C uni-filters (Packard) by filtration using a Packard harvester and washing with ice-cold wash buffer (50 mM Tris; pH 7.5). After drying, filter-retained radioactivity was detected by liquid scintillation counting. Ki values were calculated using Excel-Fit (Microsoft) and are the means of two determinations.
Representative test results, obtained by the above described assay measuring binding affinity to HEK293 cells expressing human (h) receptors, are shown in table 1 below.

Structures are written as SMILES.

`Cc1onc(-c2ccccc2)c1COc1ccc(C(=O)NN)cn1` [Example 1, 6-((5-Methyl-3-phenyl-isoxazol-4-yl)-methoxy)-nicotinic acid hydrazide]: the Ki amounted to 5.4 nM.

Regarding `Cc1onc(-c2ccccc2)c1COc1ccc(C(=O)NN2CCOCC2)cn1` [Example 2, 6-((5-Methyl-3-phenyl-isoxazol-4-yl)-methoxy)-N-morpholin-4-yl-nicotinamide], the Ki was 0.6 nM.

Regarding `Cc1onc(-c2ccccc2)c1COc1ccc(C(=O)NN2CCCCC2)cn1` [Example 3, 6-((5-Methyl-3-phenyl-isoxazol-4-yl)-methoxy)-N-piperidin-1-yl-nicotinamide], the Ki worked out at 4 nM.

As for `Cc1onc(-c2ccccc2)c1COc1ccc(C(=O)NN2CCCC2)cn1` [Example 4, 6-((5-Methyl-3-phenyl-isoxazol-4-yl)-methoxy)-N-pyrrolidin-1-yl-nicotinamide], the Ki turned out to be 2.6 nM.

On to `Cc1onc(-c2ccccc2)c1COc1ccc(C(=O)NN2CCS(=O)(=O)CC2)cn1` [Example 5, N-(1,1-Dioxo-1,6-thiomorpholin-4-yl)-6-((5-methyl-3-phenyl-isoxazol-4-yl)-methoxy)-nicotinamide], for which the Ki was determined as 2.6 nM.

Consider `Cc1onc(-c2ccccc2)c1COc1ccc(C(=O)NNS(C)(=O)=O)cn1` [Example 6, 6-((5-Methyl-3-phenyl-isoxazol-4-yl)-methoxy)-nicotinic acid N′-(methylsulfonyl)-hydrazide], for which the Ki is 4.8 nM.

As for `Cc1onc(-c2ccc(F)cn2)c1COc1ccc(C(=O)NN2CCOCC2)cn1` [Example 7, 6-[(3-(5-Fluoro-pyridin-2-yl)-5-methyl-isoxazol-4-yl)-methoxy]-N-morpholin-4-yl-nicotinamide], the Ki was 0.4 nM.

In the case of `CCCCc1noc(C)c1COc1ccc(C(=O)NN2CCOCC2)cn1` [Example 8, 6-((3-Butyl-5-methyl-isoxazol-4-yl)-methoxy)-N-morpholin-4-yl-nicotinamide], the Ki worked out at 6.4 nM.

On to `CCCCc1noc(C)c1COc1ccc(C(=O)NN2CCCC2)cn1` [Example 9, 6-((3-Butyl-5-methyl-isoxazol-4-yl)-methoxy)-N-pyrrolidin-1-yl-nicotinamide], for which the Ki amounted to 19.4 nM.

In the case of `CCCCc1noc(C)c1COc1ccc(C(=O)NN(C)C)cn1` [Example 10, 6-((3-Butyl-5-methyl-isoxazol-4-yl)-methoxy)-nicotinic acid 2,2-dimethyl-hydrazide], the Ki worked out at 18.7 nM.

With `Cc1onc(-c2ccccc2)c1COc1ccc(C(=O)NN2CCOCC2)nn1` [Example 11, 6-((5-Methyl-3-phenyl-isoxazol-4-yl)-methoxy)-pyridazine-3-carboxylic acid morpholin-4-ylamide], the Ki stood at 9.5 nM.
